From patent US20060173015A1, “Cyclohexyldiamines as selective alpha 1a/1d adrenoreceptor antagonists for the treatment of benign prostatic hypertrophy and lower urinary tract symptoms” (priority 2004, published 2006)
Where a name gives a salt, the structure may show the parent alone.

Tests used:
α1d-AR = target: T1, α1d-AR (Homo sapiens, UniProt P25100); assay: α1-Adrenergic receptor radio-ligand (125I-HEAT) binding assay, α1d subtype; details: COS-7 cell membranes, 125I-HEAT; read-out: Receptor Binding, Ki α1d-AR
T1 construct: expressed in transfected cells; host or cells: COS-7
T1 sequence (P25100 1-572): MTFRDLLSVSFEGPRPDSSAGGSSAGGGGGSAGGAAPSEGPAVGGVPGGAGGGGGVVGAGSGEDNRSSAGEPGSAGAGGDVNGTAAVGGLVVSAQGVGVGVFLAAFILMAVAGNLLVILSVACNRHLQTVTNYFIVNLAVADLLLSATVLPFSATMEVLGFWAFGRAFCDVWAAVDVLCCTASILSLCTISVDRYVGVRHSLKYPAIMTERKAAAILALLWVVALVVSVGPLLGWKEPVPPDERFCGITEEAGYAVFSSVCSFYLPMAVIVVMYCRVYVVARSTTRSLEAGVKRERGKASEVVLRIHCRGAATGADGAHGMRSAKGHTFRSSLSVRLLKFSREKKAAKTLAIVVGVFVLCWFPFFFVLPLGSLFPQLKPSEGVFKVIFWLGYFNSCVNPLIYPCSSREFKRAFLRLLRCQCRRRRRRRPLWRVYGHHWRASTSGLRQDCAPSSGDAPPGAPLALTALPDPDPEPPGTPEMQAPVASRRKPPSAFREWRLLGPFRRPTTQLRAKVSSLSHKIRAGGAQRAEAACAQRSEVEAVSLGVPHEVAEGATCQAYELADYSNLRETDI

α1b-AR = target: T2, α1b-AR (Homo sapiens, UniProt P35368); assay: α1-Adrenergic receptor radio-ligand (125I-HEAT) binding assay, α1b subtype; details: Receptor Binding, Ki α1b-AR, COS-7 cell membranes, 125I-HEAT
T2 sequence (P35368 1-520): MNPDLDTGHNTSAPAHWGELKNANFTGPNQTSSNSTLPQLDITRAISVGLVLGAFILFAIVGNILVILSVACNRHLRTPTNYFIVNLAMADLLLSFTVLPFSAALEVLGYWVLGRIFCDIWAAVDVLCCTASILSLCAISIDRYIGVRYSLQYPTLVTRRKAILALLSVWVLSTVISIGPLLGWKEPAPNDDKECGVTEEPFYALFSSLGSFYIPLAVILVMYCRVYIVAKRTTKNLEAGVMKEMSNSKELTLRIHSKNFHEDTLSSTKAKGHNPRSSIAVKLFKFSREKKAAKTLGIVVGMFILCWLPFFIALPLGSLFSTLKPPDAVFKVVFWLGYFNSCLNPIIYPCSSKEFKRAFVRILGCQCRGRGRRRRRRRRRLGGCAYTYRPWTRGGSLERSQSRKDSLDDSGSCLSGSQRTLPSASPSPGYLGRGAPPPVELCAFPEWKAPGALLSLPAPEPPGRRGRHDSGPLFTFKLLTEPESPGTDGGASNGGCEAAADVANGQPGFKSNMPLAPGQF

α1a-AR = target: T3, α1a-AR (Homo sapiens, UniProt P35348); assay: α1-Adrenergic receptor radio-ligand (125I-HEAT) binding assay, α1a subtype; details: COS-7 cell membranes, 125I-HEAT
T3 construct: expressed in transfected cells; host or cells: COS-7
T3 sequence (P35348 1-466): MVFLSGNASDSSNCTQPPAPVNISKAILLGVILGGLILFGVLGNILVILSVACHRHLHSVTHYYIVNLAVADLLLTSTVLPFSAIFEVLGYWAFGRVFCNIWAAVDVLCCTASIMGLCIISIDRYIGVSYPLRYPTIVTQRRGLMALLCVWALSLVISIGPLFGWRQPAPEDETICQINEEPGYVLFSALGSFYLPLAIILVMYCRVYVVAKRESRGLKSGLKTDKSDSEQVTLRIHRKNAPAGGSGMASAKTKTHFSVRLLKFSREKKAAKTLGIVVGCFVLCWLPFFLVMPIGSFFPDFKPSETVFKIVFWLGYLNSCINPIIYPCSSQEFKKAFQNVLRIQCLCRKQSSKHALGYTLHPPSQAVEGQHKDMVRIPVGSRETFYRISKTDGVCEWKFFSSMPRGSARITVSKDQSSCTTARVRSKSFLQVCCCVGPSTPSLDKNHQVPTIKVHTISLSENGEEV
In short: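 Membranes from COS-7 cells transfected with the α1a-AR were incubated with 50 pM final ¹²⁵I-HEAT and test compound (1 pM–10 μM final, half-log steps) in Tris/EDTA/NaCl buffer pH 7.4 for 1 hr at rt. Bound radioactivity was counted after GF/C filtration, in triplicate.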

[1] = system: α1a and α1d subtypes over the α1b subtype; details: cited from earlier work
BPH patients = details: large clinical trials of BPH patients; cited from earlier work
micturition pressure = details: intrathecal; normal rats and rats with bladder hypertrophy secondary to outlet obstruction; cited from earlier work

| Compound | Ki (α1d-AR) | Ki (α1b-AR) | Ki (α1a-AR) | other results |
| --- | --- | --- | --- | --- |
| CCN([C@H]1CC[C@@H](N2CCN(c3ccccc3OC(C)C)CC2)CC1)S(=O)(=O)c1ccc(OC)c(OC)c1 (as salt: fumarate) [Cpd 67, N-Ethyl-N-cis-{4-[4-(2-isopropoxy-phenyl)-piperazin-1-yl]-cyclohexyl}-3,4-dimethoxy-benzenesulfonamide] | – | – | – | melting point: 199 °C (dec.) |
| CCN([C@H]1CC[C@H](N2CCN(c3ccccc3OC(C)C)CC2)CC1)S(=O)(=O)c1ccc(OC)c(OC)c1 (as salt: fumarate) [Cpd 68, N-Ethyl-N-trans-{4-[4-(2-isopropoxy-phenyl)-piperazin-1-yl]-cyclohexyl}-3,4-dimethoxy-benzenesulfonamide] | – | – | – | melting point: 186 °C (dec.) |
| COc1ccc(S(=O)(=O)N[C@H]2CC[C@@H](N3CCN(c4cc(F)ccc4OCC(F)(F)F)CC3)CC2)cc1OC (as salt: fumarate) [Cpd 83, N-cis-(4-{4-[5-Fluoro-2-(2,2,2-trifluoro-ethoxy)-phenyl]-piperazin-1-yl}-cyclohexyl)-3,4-dimethoxy-benzenesulfonamide] | – | – | – | melting point: 232 °C |
| COc1ccc(S(=O)(=O)N[C@H]2CC[C@H](N3CCN(c4cc(F)ccc4OCC(F)(F)F)CC3)CC2)cc1OC (as salt: fumarate) [Cpd 84, N-trans-(4-{4-[5-Fluoro-2-(2,2,2-trifluoro-ethoxy)-phenyl]-piperazin-1-yl}-cyclohexyl)-3,4-dimethoxy-benzenesulfonamide] | – | – | – | melting point: 185 °C |
| COc1ccc(S(=O)(=O)N[C@H]2CC[C@@H](N3CCN(c4ccc(F)cc4OCC(F)(F)F)CC3)CC2)cc1OC [Cpd 75, N-cis-(4-{4-[4-Fluoro-2-(2,2,2-trifluoro-ethoxy)-phenyl]-piperazin-1-yl}-cyclohexyl)-3,4-dimethoxy-benzenesulfonamide] | 5.2 nM | 176 nM | 13.9 nM | – |
| COc1ccc(Cl)cc1S(=O)(=O)N[C@H]1CC[C@@H](N2CCN(c3ccc(F)cc3OCC(F)(F)F)CC2)CC1 [Cpd 76, 5-Chloro-N-cis-(4-{4-[4-fluoro-2-(2,2,2-trifluoro-ethoxy)-phenyl]-piperazin-1-yl}-cyclohexyl)-2-methoxy-benzenesulfonamide] | 8.5 nM | 196 nM | 17 nM | – |
| O=S(=O)(N[C@H]1CC[C@@H](N2CCN(c3ccc(F)cc3OCC(F)(F)F)CC2)CC1)c1cc(Cl)ccc1F [Cpd 77, 5-Chloro-2-fluoro-N-cis-(4-{4-[4-fluoro-2-(2,2,2-trifluoro-ethoxy)-phenyl]-piperazin-1-yl}-cyclohexyl)-benzenesulfonamide] | 29 nM | 206 nM | 43 nM | – |
| COc1ccc(Cl)cc1S(=O)(=O)N[C@H]1CC[C@H](N2CCN(c3ccc(F)cc3OC(C)C)CC2)CC1 [Cpd 78, 5-Chloro-N-trans-{4-[4-(4-fluoro-2-isopropoxy-phenyl)-piperazin-1-yl]-cyclohexyl}-2-methoxy-benzenesulfonamide] | 47 nM | 44 nM | 340 nM | – |
| CC(C)Oc1cc(F)ccc1N1CCN([C@H]2CC[C@H](NS(=O)(=O)c3cc(Cl)ccc3F)CC2)CC1 [Cpd 79, 5-Chloro-2-fluoro-N-trans-{4-[4-(4-fluoro-2-isopropoxy-phenyl)-piperazin-1-yl]-cyclohexyl}-benzenesulfonamide] | 14 nM | 107 nM | 5.4 nM | – |
| COc1ccc(S(=O)(=O)N[C@H]2CC[C@H](N3CCN(c4ccc(F)cc4OCC(F)(F)F)CC3)CC2)cc1OC [Cpd 80, N-trans-(4-{4-[4-Fluoro-2-(2,2,2-trifluoro-ethoxy)-phenyl]-piperazin-1-yl}-cyclohexyl)-3,4-dimethoxy-benzenesulfonamide] | 38 nM | 87 nM | 21 nM | – |
| COc1ccc(Cl)cc1S(=O)(=O)N[C@H]1CC[C@H](N2CCN(c3ccc(F)cc3OCC(F)(F)F)CC2)CC1 [Cpd 81, 5-Chloro-N-trans-(4-{4-[4-fluoro-2-(2,2,2-trifluoro-ethoxy)-phenyl]-piperazin-1-yl}-cyclohexyl)-2-methoxy-benzenesulfonamide] | 51 nM | 90 nM | 34 nM | – |
| O=S(=O)(N[C@H]1CC[C@H](N2CCN(c3ccc(F)cc3OCC(F)(F)F)CC2)CC1)c1cc(Cl)ccc1F [Cpd 82, 5-Chloro-2-fluoro-N-trans-(4-{4-[4-fluoro-2-(2,2,2-trifluoro-ethoxy)-phenyl]-piperazin-1-yl}-cyclohexyl)-benzenesulfonamide] | 240 nM | 442 nM | 52 nM | – |
| COc1ccc(S(=O)(=O)N[C@H]2CC[C@@H](N3CCN(c4cc(F)ccc4OCC(F)(F)F)CC3)CC2)cc1OC [Cpd 83, N-cis-(4-{4-[5-Fluoro-2-(2,2,2-trifluoro-ethoxy)-phenyl]-piperazin-1-yl}-cyclohexyl)-3,4-dimethoxy-benzenesulfonamide] | 0.58 nM | 75 nM | 1.7 nM | – |
| COc1ccc(S(=O)(=O)N[C@H]2CC[C@H](N3CCN(c4cc(F)ccc4OCC(F)(F)F)CC3)CC2)cc1OC [Cpd 84, N-trans-(4-{4-[5-Fluoro-2-(2,2,2-trifluoro-ethoxy)-phenyl]-piperazin-1-yl}-cyclohexyl)-3,4-dimethoxy-benzenesulfonamide] | 36.1 nM | 220 nM | 33 nM | – |
| CCOc1ccccc1OCCN[C@H](C)Cc1ccc(OC)c(S(N)(=O)=O)c1 [Tamsulosin] | – | – | – | selectivity for the α1a and α1d subtypes over the α1b subtype [1]: about 15 fold; effect on obstructive and irritative symptoms (BPH patients): improvement in both obstructive and irritative symptoms |
| COc1cc2nc(N3CCN(C(=O)C4COc5ccccc5O4)CC3)nc(N)c2cc1OC (stereo not shown) [doxazosin] | – | – | – | effect on micturition pressure (micturition pressure): decrease in micturition pressure |
